Assay results published in patent US20090143279A1 (priority 2007, published 2009).
Like-named read-outs stand apart in the source and are kept apart here.

Columns and labels:
nuOXPHOS transcripts = type: cell-based, mouse
[1] = test system: cellular dehydrogenase activity
mtOXPHOS transcripts = type: cell-based, mouse
[2] = test system: mitochondrial membrane potential; type: cell-based, mouse
reactive oxygen species = type: cell-based, mouse
OXPHOS gene expression = type: cell-based, mouse
cytochrome c = type: cell-based, mouse
[3] = composite Z-score vs DMSO, Conc 20 μM
[4] = Table 7, C2C12 myotubes, 48 h, composite Z-score
[5] = normalized composite Z-score vs mock-treated (DMSO) wells, Conc 20 μM
[6] = composite Z-score vs mock-treated (DMSO) wells, Conc 20 μM
[7] = Conc 20 μM, normalized score vs mock-treated (DMSO) wells
[8] = composite Z-score vs DMSO wells, Conc 20 μM
[9] = composite Z-score vs mock-treated (DMSO) wells, concentration of each compound in μM
[10] = composite Z-score vs DMSO, Conc 10.62 μM

For `COc1cc(O)ccc1C(C)=O` [isopeonol], the nucOX (nuOXPHOS transcripts; [3]) was 0.134, the MTT [1, 3] was −0.831 and the mitoOX (mtOXPHOS transcripts; [3]) was −0.635. For the same compound, the ΔΨm [2, 3] was 0.271, the ROS (reactive oxygen species; [3]) was −0.219 and the GE-HTS (OXPHOS gene expression; [3]) was −0.109. It also gave a Viability (C2C12 myotubes; [3]) of −1.180 and a cyt c (cytochrome c; [3]) of 0.734.
In the case of `COc1cc2c(cc1OC)[C@@H]1C(=O)c3ccc4oc(C(C)C)cc4c3O[C@@H]1CO2` [isorotenone, reference compound], the “nucOXPHOS Z” value (nuOXPHOS transcripts; [4]) is reported as −3.02, the nucOX (nuOXPHOS transcripts; [5]) is reported as −3.017 and the MTT [1, 5] is reported as −4.373. For the same compound, the “mito-OXPHOS Z” value (mtOXPHOS transcripts; [4]) was −4.57, the mitoOX (mtOXPHOS transcripts; [5]) was −4.571 and the ΔΨm [2, 5] was −1.329. The ROS (reactive oxygen species; [5]) was −0.782, the GE-HTS (OXPHOS gene expression; [5]) was −3.751 and the Viability (C2C12 myotubes; [5]) was −1.954. For the same compound, the cyt c (cytochrome c; [5]) was −3.397.
With `CC=Cc1ccc2c(c1)OCO2` [isosafrole] the nucOX (nuOXPHOS transcripts; [6]) was −0.860, the MTT [1, 6] was −0.913 and the mitoOX (mtOXPHOS transcripts; [6]) was −1.917. For the same compound, the ΔΨm [2, 6] was −1.060, the ROS (reactive oxygen species; [6]) was 0.397 and the GE-HTS (OXPHOS gene expression; [6]) was −1.283. For the same compound, the Viability (C2C12 myotubes; [6]) was −0.798 and the cyt c (cytochrome c; [6]) was 0.462.
Work on `COc1ccc(-c2coc3c(OC)c(OC)cc(OC)c3c2=O)cc1` [isotectorigenin trimethyl ether] yielded a nucOX (nuOXPHOS transcripts; [6]) of 0.426, an MTT [1, 6] of −1.465 and a mitoOX (mtOXPHOS transcripts; [6]) of 0.418. It also gave a ΔΨm [2, 6] of 0.413, an ROS (reactive oxygen species; [6]) of 0.359 and a GE-HTS (OXPHOS gene expression; [6]) of 0.437. It also gave a Viability (C2C12 myotubes; [6]) of 0.976 and a cyt c (cytochrome c; [6]) of 0.640.
With `COc1cc(O)c2c(=O)c(-c3ccc(O)cc3)coc2c1OC` [isotectorigenin, 7-methyl ether] the “nucOX (composite Z-score)” value (nuOXPHOS transcripts; [7]) was −0.674, the “MTT (composite Z-score)” value [1, 7] was −1.606 and the “mitoOX (composite Z-score)” value (mtOXPHOS transcripts; [7]) was −0.360. For the same compound, the “ΔΨm (composite Z-score)” value [2, 7] was 0.574, the “ROS (composite Z-score)” value (reactive oxygen species; [7]) was 0.644 and the “GE-HTS (composite Z-score)” value (OXPHOS gene expression; [7]) was −0.592. The “Viability (composite Z-score)” value (C2C12 myotubes; [7]) was 0.633 and the “cyt c (composite Z-score)” value (cytochrome c; [7]) was −0.477.
Compound `Cc1cc(NC(=O)C2=C(O)c3ccccc3S(=O)(=O)N2C)no1` [isoxicam] has a nucOX (nuOXPHOS transcripts; [8]) of −0.221, an MTT [1, 8] of −0.152 and a mitoOX (mtOXPHOS transcripts; [8]) of −0.770. For the same compound, the ΔΨm [2, 8] was −1.091, the ROS (reactive oxygen species; [8]) was 0.030 and the GE-HTS (OXPHOS gene expression; [8]) was −0.423. It also gave a Viability (C2C12 myotubes; [8]) of 0.010, a cyt c (cytochrome c) of 0.177 and a cyt c (cytochrome c; [8]) of −0.169.
Work on `CC(COc1ccccc1)NC(C)C(O)c1ccc(O)cc1` (centres unmarked) [isoxsuprine] yielded a nucOX (nuOXPHOS transcripts; [3]) of −0.267, an MTT [1, 3] of −1.776 and a mitoOX (mtOXPHOS transcripts; [3]) of 0.463. It also gave a ΔΨm [2, 3] of −1.246, an ROS (reactive oxygen species; [3]) of 1.375 and a GE-HTS (OXPHOS gene expression; [3]) of −0.050. For the same compound, the Viability (C2C12 myotubes; [3]) was −0.141, the cyt c (cytochrome c; [3]) was 0.295 and the cyt c (cytochrome c; [9]) was −0.148.
Compound `O=C(O)/C=C/C=C/c1ccccc1` [juarezic acid] has a nucOX (nuOXPHOS transcripts; [3]) of 0.108, an MTT [1, 3] of −0.449 and a mitoOX (mtOXPHOS transcripts; [3]) of −0.650. For the same compound, the ΔΨm [2, 3] was −0.821, the ROS (reactive oxygen species; [3]) was 0.345 and the GE-HTS (OXPHOS gene expression; [3]) was −0.147. For the same compound, the Viability (C2C12 myotubes; [3]) was −0.106 and the cyt c (cytochrome c; [3]) was −0.113.
`NC[C@H]1O[C@H](O[C@H]2[C@H](O)[C@@H](O[C@H]3O[C@H](CO)[C@@H](O)[C@H](N)[C@H]3O)[C@H](N)C[C@@H]2N)[C@H](O)[C@@H](O)[C@@H]1O` [kanamycin A] showed a nucOX (nuOXPHOS transcripts; [9]) of −0.218, an MTT [1, 9] of −1.149 and a mitoOX (mtOXPHOS transcripts; [9]) of −0.323. For the same compound, the ΔΨm [2, 9] was −0.812, the ROS (reactive oxygen species; [9]) was 1.383 and the GE-HTS (OXPHOS gene expression; [9]) was −0.270. It also gave a Viability (C2C12 myotubes; [9]) of −1.015 and a cyt c (cytochrome c; [9]) of −0.131.
Compound `O=C(c1ccccc1)c1ccc2n1CCC2C(=O)O` (centres unmarked) [ketorolac] has a nucOX (nuOXPHOS transcripts; [10]) of −0.072, a nucOX (nuOXPHOS transcripts; [3]) of −0.468 and an MTT [1, 10] of −0.563. For the same compound, the MTT [1, 3] was −0.053, the mitoOX (mtOXPHOS transcripts; [10]) was 0.412 and the mitoOX (mtOXPHOS transcripts; [3]) was −0.033. The ΔΨm [2, 10] was 0.136, the ΔΨm [2, 3] was −0.825 and the ROS (reactive oxygen species; [10]) was 0.482. It also gave an ROS (reactive oxygen species; [3]) of 0.939, a GE-HTS (OXPHOS gene expression; [10]) of 0.096 and a GE-HTS (OXPHOS gene expression; [3]) of −0.344. The Viability (C2C12 myotubes; [10]) was −0.773, the Viability (C2C12 myotubes; [3]) was −0.363 and the cyt c (cytochrome c; [10]) was 0.315. The cyt c (cytochrome c; [3]) was −0.707.
Work on `CCC(=O)OC1[C@@H]2CC3=C4CC(=O)O[C@@H](c5ccoc5)[C@]4(C)CCC3[C@@](C)(C2=O)[C@@H](CC(=O)OC)C1(C)C` (some centres unmarked) [khayasin C] yielded a nucOX (nuOXPHOS transcripts; [6]) of 0.033, an MTT [1, 6] of −1.678 and a mitoOX (mtOXPHOS transcripts; [6]) of 1.232. The ΔΨm [2, 6] was −0.095, the ROS (reactive oxygen species; [6]) was −0.078 and the GE-HTS (OXPHOS gene expression; [6]) was 0.442. For the same compound, the Viability (C2C12 myotubes; [6]) was −1.021 and the cyt c (cytochrome c; [6]) was −0.654.
Compound `CCC(C)C(=O)OC1[C@@H]2CC3=C4CC(=O)O[C@@H](c5ccoc5)[C@]4(C)CCC3[C@@](C)(C2=O)[C@@H](CC(=O)OC)C1(C)C` (some centres unmarked) [khayasin] has a nucOX (nuOXPHOS transcripts; [6]) of 0.798, an MTT [1, 6] of −0.812 and a mitoOX (mtOXPHOS transcripts; [6]) of 0.326. For the same compound, the ΔΨm [2, 6] was 0.007, the ROS (reactive oxygen species; [6]) was 0.528 and the GE-HTS (OXPHOS gene expression; [6]) was 0.671. It also gave a Viability (C2C12 myotubes; [6]) of −0.077 and a cyt c (cytochrome c; [6]) of −0.281.
`CC(=O)O[C@H]1C[C@@H](OC(C)=O)C(C)(C)[C@@H]2C[C@@H](OC(C)=O)[C@]3(C)[C@H](CC[C@@]4(C)[C@H](c5ccoc5)OC(=O)[C@H]5O[C@@]534)[C@@]12C` [khivorin] gave a nucOX (nuOXPHOS transcripts; [6]) of −0.022, an MTT [1, 6] of −1.421 and a mitoOX (mtOXPHOS transcripts; [6]) of −0.423. It also gave a ΔΨm [2, 6] of −0.145, an ROS (reactive oxygen species; [6]) of 0.187 and a GE-HTS (OXPHOS gene expression; [6]) of −0.144. It also gave a Viability (C2C12 myotubes; [6]) of 0.807 and a cyt c (cytochrome c; [6]) of 0.229.
